Reference: patent US5047412A, “Alkene derivatives” (Imperial Chemical Industries PLC, priority 1985, dated 1991)

Experiments:
[1] = biological target: T1, blood platelet aggregation (TXA2 antagonism) (Homo sapiens, UniProt P21731); assay: blood platelet aggregation test (test (b)); assay type: cell-based; conditions: procedure (b), human citrated platelet-rich plasma, U46619
T1 construct: aggregating human, citrated platelet-rich plasma; endogenous in cells; host or cells: human platelets in citrated platelet-rich plasma
T1 sequence (P21731 1-343): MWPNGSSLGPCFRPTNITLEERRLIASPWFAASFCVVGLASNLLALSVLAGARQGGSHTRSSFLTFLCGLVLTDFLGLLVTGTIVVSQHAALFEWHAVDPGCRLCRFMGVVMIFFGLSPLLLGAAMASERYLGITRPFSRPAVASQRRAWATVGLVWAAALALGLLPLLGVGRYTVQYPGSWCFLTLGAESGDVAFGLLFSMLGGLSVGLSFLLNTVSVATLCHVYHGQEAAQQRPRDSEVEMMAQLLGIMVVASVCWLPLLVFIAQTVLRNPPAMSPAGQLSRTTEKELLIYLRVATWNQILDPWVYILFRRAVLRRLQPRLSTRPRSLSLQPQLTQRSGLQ
Excerpt: (b) a blood platelet aggregation test based on that described by Born (Nature, 1962, 194, 927-929) and involving:
(i) aggregating human, citrated platelet-rich plasma by addition of the TXA2 mimetic agent U46619 so that a dose-response curve is generated;
(ii) generating a dose-response curve for U46619 stimulated platelet aggregation in the presence of increasing amounts of test compound (generally in the range, 10^-5 M to 10^-10 M); and
(iii) calculating a Kb value indicating potency of TXA2 antagonism for the test compound, averaged over several concentrations, from the calculated 50% response value for U46619 aggregation in the presence and absence of test compound; and […]

[2] = tested on: rabbit aortal strip (TXA2 antagonism); assay: rabbit aortal strip model (test (a)); assay type: cell-based; conditions: procedure (a), agonist U46619
Method: (a) the rabbit aortal strip model devised by Piper and Vane (Nature, 1969, 223, 29-35) using as agonist a freshly prepared sample of TXA2, generated by addition of arachidonic acid (25 μg) to citrated, platelet rich rabbit plasma (250 μl) and allowing the mixture to aggregate fully over 90 seconds before use; alternatively the TXA2 mimetic agent known as U46619 (described by R. L. Jones et alia, in "Chemistry, Biochemistry and Pharmacological Activity of Prostanoids" edited by S. M. Roberts and F. Scheinmann, at page 211, Pergamon Press, 1979) may be used as the agonist;

- Kb [1]: 12 nM
SMILES: O=C(O)CC/C=C\C[C@@H]1CO[C@H](/C=C/c2ccccc2)O[C@@H]1c1ccccc1O (relative stereo) [Example 1, 4(Z)-6-([2,4,5-cis]-4-o-hydroxyphenyl-2(E)-styryl-1,3-dioxan-5-yl)hexenoicacid]
- pA2 [2]: 8.9
